Measured values taken from ChEMBL document CHEMBL1201862, “PubChem BioAssay data set” (2004).
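48-hour exposure; five concentrations; linearly interpolated endpoints. GI50 = concentration required for 50% inhibition of growth.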 The source made the active and inactive calls. Cut-off read from the data, not from the text of the source: active = GI50 up to about 1.1 µM and inactive = higher.

Columns and labels:
Experiment in all cases: inhibition of tumour cell growth, NCI panel, 48 h
786-0 = system: 786-0
A498 = system: A498
A549 = system: A549
ACHN = system: ACHN
BT-549 = system: BT-549
CAKI-1 = system: CAKI-1
CCRF-CEM = system: CCRF-CEM
COLO 205 = system: COLO 205
DLD-1 = system: DLD-1
DMS-273 = system: DMS-273
DU-145 = system: DU-145
EKVX = system: EKVX
HCC 2998 = system: HCC 2998
HCT-116 = system: HCT-116
HCT-15 = system: HCT-15
HL-60 = system: HL-60
HOP-18 = system: HOP-18
HOP-62 = system: HOP-62
HOP-92 = system: HOP-92
HT-29 = system: HT-29
Hs-578T = system: Hs-578T
IGROV-1 = system: IGROV-1
K562 = system: K562
KM-20L2 = system: KM-20L2
KM12 = system: KM12
LOX IMVI = system: LOX IMVI
LXFL 529 = system: LXFL 529
M14 = system: M14
MCF7 = system: MCF7
MDA-MB-231 = system: MDA-MB-231
MDA-MB-435 = system: MDA-MB-435
MDA-N = system: MDA-N
MOLT-4 = system: MOLT-4
Malme-3M = system: Malme-3M
NCI-H226 = system: NCI-H226
NCI-H23 = system: NCI-H23
NCI-H460 = system: NCI-H460
NCI-H522 = system: NCI-H522
NCI/ADR-RES = system: NCI/ADR-RES
OVCAR-3 = system: OVCAR-3
OVCAR-4 = system: OVCAR-4
OVCAR-5 = system: OVCAR-5
OVCAR-8 = system: OVCAR-8
PC-3 = system: PC-3
RPMI-8226 = system: RPMI-8226
RXF 393 = system: RXF 393
RXF 631 = system: RXF 631
SF-268 = system: SF-268
SF-295 = system: SF-295
SF-539 = system: SF-539
SK-MEL-28 = system: SK-MEL-28
SK-MEL-5 = system: SK-MEL-5
SK-OV-3 = system: SK-OV-3
SN12C = system: SN12C
SNB-19 = system: SNB-19
SNB-75 = system: SNB-75
SNB-78 = system: SNB-78
SR = system: SR
SW-620 = system: SW-620
T47D = system: T47D
TK-10 = system: TK-10
U-251 = system: U-251
UACC-257 = system: UACC-257
UACC-62 = system: UACC-62
UO-31 = system: UO-31

Measured: GI50

COc1cccc2c1C(=O)c1c(O)c3c(c(O)c1C2=O)C[C@@](O)(C(=O)CO)C[C@@H]3OC1CC(N2CCOCC2C#N)C(O)C(C)O1 (stereo not given in full)
active: 786-0 1 nM | A498 0.0258 nM | A549 0.0426 nM | ACHN 0.0327 nM | BT-549 0.0539 nM | CAKI-1 0.0353 nM | CCRF-CEM 0.0194 nM | COLO 205 0.136 nM | DLD-1 0.0226 nM | DMS-273 0.0193 nM | DU-145 0.0415 nM | EKVX 0.227 nM | HCC 2998 0.0537 nM | HCT-116 0.0271 nM | HL-60 0.0202 nM | HOP-18 2.5 nM | HOP-62 0.0232 nM | HOP-92 0.0953 nM | HT-29 0.0207 nM | Hs-578T 0.0573 nM | IGROV-1 0.0857 nM | K562 0.0252 nM | KM-20L2 2.5 nM | KM12 0.0255 nM | LOX IMVI 2.5 nM | LXFL 529 1 nM | M14 0.0542 nM | MCF7 2.5 nM | MDA-MB-231 0.11 nM | MDA-MB-435 0.074 nM | MDA-N 0.0908 nM | MOLT-4 0.0183 nM | Malme-3M 0.2 nM | NCI-H226 0.0146 nM | NCI-H23 0.0245 nM | NCI-H460 0.00817 nM | NCI-H522 0.0305 nM | NCI/ADR-RES 0.0536 nM | OVCAR-3 0.0227 nM | OVCAR-4 0.0218 nM | OVCAR-5 0.0498 nM | OVCAR-8 0.0518 nM | PC-3 0.107 nM | RPMI-8226 0.0301 nM | RXF 393 0.0191 nM | RXF 631 0.0824 nM | SF-268 0.0382 nM | SF-295 0.0182 nM | SF-539 0.0241 nM | SK-MEL-28 0.0973 nM | SK-MEL-5 0.0372 nM | SK-OV-3 0.124 nM | SN12C 0.0214 nM | SNB-19 0.0352 nM | SNB-75 0.0137 nM | SNB-78 2.5 nM | SR 0.0127 nM | SW-620 0.0723 nM | T47D 0.102 nM | TK-10 0.149 nM | U-251 0.0301 nM | UACC-257 0.0597 nM | UACC-62 0.00998 nM | UO-31 0.0552 nM
0.0451 nM: HCT-15
